Laboratory results reported in ChEMBL document CHEMBL6103667, “Novel Cyclic Peptides Inhibiting Tumor Necrosis Factor Receptor 1 Activity” (ACS Med Chem Lett, 2025).
Numbered stars: 1 amine (or outer) side, 2 acyl side, 3 side chain; on linkers, the order of the positions; unused ones are H or OH. Bridge positions count the residues as written; N and C are the ends. Square brackets hold non-standard residues; d marks the D form. Peptide text beside a SMILES is read from it. X1 = COc1cccc2c([C@H](C)[C@](C)(N[*:1])C(=O)[*:2])c[nH]c12; Morpholine(3S-CO,6,6-Me2) = CC1(C)CN[C@H](C(=O)O)CO1; Trp(7-Cl) = N[C@@H](Cc1c[nH]c2c(Cl)cccc12)C(=O)O; Phe(4-COOH) = N[C@@H](Cc1ccc(C(=O)O)cc1)C(=O)O; X2 = O=C([C@H]1CC[C@@H](N[*:1])C1)[*:2]; Pip(4-aza) = O=C(O)[C@@H]1CNCCN1; 4Pal = N[C@@H](Cc1ccncc1)C(=O)O; NMeE = CN[C@@H](CCC(=O)O)C(=O)O; X3 = CC[C@H](C(=O)[*:1])[*:2]; NEtAla = CCN[C@@H](C)C(=O)O; αMeS = C[C@](N)(CO)C(=O)O; Nle = CCCC[C@H](N)C(=O)O; Sar = CNCC(=O)O

Columns and labels:
[1] = molecular target: T1, Tumor necrosis factor receptor superfamily member 1A (Homo sapiens, UniProt P19438); test: Displacement of biotinylated peptide from C-terminal 6His-tagged human soluble TNFR1 (1 to 211 residues) extracted from Sf21 baculovirus expression system incubated for 90 mins by LanthaScreen Eu based TR-FRET binding assay
T1 sequence (P19438 whole entry): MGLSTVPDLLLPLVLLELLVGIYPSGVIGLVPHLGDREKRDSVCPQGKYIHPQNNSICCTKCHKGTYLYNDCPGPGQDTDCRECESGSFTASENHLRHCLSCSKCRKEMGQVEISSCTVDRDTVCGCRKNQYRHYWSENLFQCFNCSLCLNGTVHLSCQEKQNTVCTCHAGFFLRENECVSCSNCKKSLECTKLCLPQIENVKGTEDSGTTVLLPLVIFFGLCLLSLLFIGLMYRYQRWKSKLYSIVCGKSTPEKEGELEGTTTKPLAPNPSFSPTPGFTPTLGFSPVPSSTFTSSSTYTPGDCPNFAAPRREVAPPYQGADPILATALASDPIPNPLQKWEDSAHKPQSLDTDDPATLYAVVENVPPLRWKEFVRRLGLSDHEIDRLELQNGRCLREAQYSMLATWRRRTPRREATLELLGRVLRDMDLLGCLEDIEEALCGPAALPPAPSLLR

[2] = molecular target: T1, Tumor necrosis factor receptor superfamily member 1A; test: Binding affinity to C-terminal Avi-tagged human TNFRl extracted from Sf21 baculovirus expression system assessed as dissociation constant incubated for 20 hrs in presence of ATP by SPR analysis
[3] = molecular target: T2, Tumor necrosis factor receptor superfamily member 1B (Homo sapiens, UniProt P20333); test: Binding affinity to C-terminal Avi-tagged human TNFR2 extracted from Sf21 baculovirus expression system assessed as dissociation constant incubated for 20 hrs in presence of ATP by SPR analysis
T2 sequence (P20333 whole entry): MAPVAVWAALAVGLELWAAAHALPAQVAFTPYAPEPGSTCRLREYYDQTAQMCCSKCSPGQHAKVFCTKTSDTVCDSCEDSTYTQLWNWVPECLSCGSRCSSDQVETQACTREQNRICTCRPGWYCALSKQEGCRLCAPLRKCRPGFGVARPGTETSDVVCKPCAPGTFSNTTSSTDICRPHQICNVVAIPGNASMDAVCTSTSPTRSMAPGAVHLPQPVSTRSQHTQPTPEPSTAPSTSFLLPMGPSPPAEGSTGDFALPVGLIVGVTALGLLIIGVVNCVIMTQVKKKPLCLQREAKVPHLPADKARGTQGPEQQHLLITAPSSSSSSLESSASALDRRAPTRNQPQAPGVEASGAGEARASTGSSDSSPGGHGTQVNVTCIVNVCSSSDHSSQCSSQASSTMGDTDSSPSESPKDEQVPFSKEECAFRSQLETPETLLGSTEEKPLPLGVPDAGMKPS

[4] = Inhibition of TNFalpha-induced NF-kappaB signal transduction pathway in human THP-1 cells preincubated for 1 hrs followed by TNFalpha addition and measured after 16 to 18 hrs by luminescence based microplate reader; format: cell-based

IC50 [4]	SMILES	IC50 [1]	Kd [2]	Kd [3]
1.2 nM	CCCC[C@@H]1NC(=O)[C@H]2CC[C@H](C2)NC(=O)[C@](C)([C@@H](C)c2c[nH]c3c(OC)cccc23)NC(=O)CN(C)C(=O)[C@H](Cc2ccc(O)cc2)NC(=O)[C@H](Cc2ccc(C(=O)O)cc2)NC(=O)[C@](C)(CO)NC(=O)[C@H](Cc2c[nH]c3c(Cl)cccc23)NC(=O)[C@H](Cc2ccncc2)NC(=O)[C@H](CC(=O)O)NC(=O)[C@H](CCC(=O)O)N(C)C(=O)[C@H](Cc2c[nH]c3ccccc23)NC(=O)[C@@H]2CNCCN2C(=O)[C@H](Cc2ccncc2)NC1=O (cyclo([4Pal][Trp(7-Cl)][αMeS][Phe(4-COOH)]Y[Sar][X1][X2][Nle][4Pal][Pip(4-aza)]W[NMeE]D))	0.2 nM	0.1 nM	> 1000 nM
0.8 nM	CCCC[C@@H]1NC(=O)CSC[C@@H](C(N)=O)NC(=O)[C@](C)([C@@H](C)c2c[nH]c3c(OC)cccc23)NC(=O)CN(C)C(=O)[C@H](Cc2ccc(O)cc2)NC(=O)[C@H](Cc2ccc(C(=O)O)cc2)NC(=O)[C@](C)(CO)NC(=O)[C@H](Cc2c[nH]c3c(Cl)cccc23)NC(=O)[C@H](Cc2ccncc2)NC(=O)[C@H](CC(N)=O)NC(=O)[C@H](C)N(CC)C(=O)[C@H](Cc2c[nH]c3ccccc23)NC(=O)[C@@H]2COC(C)(C)CN2C(=O)[C@H](Cc2ccncc2)NC1=O ({CH2CO}-[Nle][4Pal][Morpholine(3S-CO,6,6-Me2)]W[NEtAla]N[4Pal][Trp(7-Cl)][αMeS][Phe(4-COOH)]Y[Sar][X1]C-NH2; thioether N-14)	0.6 nM	0.14 nM	> 1000 nM
2.2 nM	CCCC[C@@H]1NC(=O)[C@@H](CC)SC[C@@H](C(N)=O)NC(=O)[C@](C)([C@@H](C)c2c[nH]c3c(OC)cccc23)NC(=O)CN(C)C(=O)[C@H](Cc2ccc(O)cc2)NC(=O)[C@H](Cc2ccc(C(=O)O)cc2)NC(=O)[C@](C)(CO)NC(=O)[C@H](Cc2c[nH]c3c(Cl)cccc23)NC(=O)[C@H](Cc2ccncc2)NC(=O)[C@H](CC(N)=O)NC(=O)[C@H](CCC(=O)O)N(C)C(=O)[C@H](Cc2c[nH]c3ccccc23)NC(=O)[C@@H]2COC(C)(C)CN2C(=O)[C@H](Cc2ccncc2)NC1=O ([Nle][4Pal][Morpholine(3S-CO,6,6-Me2)]W[NMeE]N[4Pal][Trp(7-Cl)][αMeS][Phe(4-COOH)]Y[Sar][X1]C-NH2; linker N-14 via X3)	0.55 nM	0.2 nM	> 1000 nM
